In patent US10709757B2, “Pharmaceutical composition for anti-angiogenesis containing cyclic pentadepsipeptide as an effective ingredient” (CHUNG-ANG UNIVERSITY INDUSTRY-ACADEMIC COOPERATION …, priority 2017, dated 2020):

Tests used:
ERK1/2 = test: Phosphorylation assay of ERK1/2 in VEGF-induced HUVECs (Western); format: cell-based, human; conditions: VEGF 50 ng/ml, FIG. 2
Protocol: (§1) After being cultured to 80-90% confluence, human umbilical vein endothelial cells (HUVECs) were additionally cultured in an M199 medium supplemented with 1% FBS for 6 hours, and then treated with neo-N-methylsansalvamide (NMSSV) at various concentrations in the presence of VEGF (50 ng/ml) for 10 minutes. Effects of neo-N-methylsansalvamide (NMSSV) in the phosphorylation assay of ERK1/2, AKT, and eNOS of HUVEC cells were measured by a Western assay method using each antibody.
(§2) In this case, the HUVECs were pre-cultured for 10 minutes prior to the VEGF stimulation and along with P2 for 40 minutes.

mouse aortic ring = test: Aortic ring assay (ex vivo VEGF-induced vascularization); conditions: in the presence of VEGF, FIG. 6
Protocol: 150 μl of Matrigel was put into a 48-well plate, uniformly spread by shaking the 48-well plate, and hardened in an incubator at 37° C. for 30 minutes. After a C57BL/6 mouse was over-anesthetized with ether and sacrificed, the aorta was extracted and washed with PBS to remove the fat, the resulting aorta was transferred to human endothelial-SFM and excised by using micro scissors. The excised aorta was placed on the hardened Matrigel, 50 μl of Matrigel was dropped on the aorta tissue, and then hardened in an incubator at 37° C. for 30 minutes. 200 μl of a medium including neo-N-methylsansalvamide (NMSSV) and VEGF was each added, and cells were observed while being cultured in a CO2 incubator at 37° C. After treatment with the test material, the cells were cultured for 14 days. On Day 7 and Day 14 of the culture, the cells were observed and photographed by an invert microscope (OLYMPUS, CKX41), and the lengths of the blood vessels produced were measured by photographing the aorta with the Toupview program (OLYMPUS, ver.3.5).
Based on the results in the Examples, the effects of P2 on ex vivo VEGF-induced neovascularization were identified, so that an aortic ring assay was performed in order to check the effects of P2 on the formation of capillary vessels in the presence of VEGF.

HUVECs [1] = test: Wound-healing migration assay; format: cell-based, human; conditions: VEGF 50 ng/ml, 24 hours, FIG. 4
Protocol: When cells were grown to approximately 90%, the medium was suctioned, and then a line was created by steadily scratching the bottom of the plate with a yellow tip, and then the cells were washed with PBS and treated with neo-N-methylsansalvamide (NMSSV) at various concentrations in the presence of VEGF (50 ng/ml) for 24 hours. After 24 hours, the tendency of cells to migrate at each treatment concentration was photographed and observed by marking the position under a microscope at 40× magnification.
(§3) Subsequently, the migration and invasion of endothelial cells is also a main step of angiogenesis leading to the formation of new blood vessels, so that effects of P2 on mobility and invasiveness of VEGF-induced HUVECs were checked by using a wound-healing migration assay and a Transwell invasion assay.

[2] = test system: human umbilical vein endothelial cells (HUVECs); test: MTT assay, VEGF-induced proliferation of HUVECs; format: cell-based; conditions: 24 hours
Protocol: After being cultured to 80-90% confluence, human umbilical vein endothelial cells (HUVECs) were additionally cultured in an M199 medium supplemented with 1% FBS for 6 hours, and then treated with neo-N-methylsansalvamide (NMSSV) at various concentrations in the presence of VEGF (50 ng/ml) for 24 hours. Effects of neo-N-methylsansalvamide (NMSSV) on the viability and growth inhibition of the HUVEC cells were measured by a 3-(4,5-dimethylthiazol-2-yl)-2,5-diphenyltetrazolium bromide (MTT) assay method.
In order to identify the effects of the neo-N-methylsansalvamide (NMSSV, Peak 2, hereinafter, referred to as P2) of the present invention on the proliferation in VEGF-induced HUVECs, it was confirmed that cells were proliferated by culturing the cells with P2 at various concentrations in the presence or absence of VEGF (50 ng/ml) by the method in Example 1-2 and performing an MTT assay 24 hours after the culture.

C57BL/6 mice [3] = test: Matrigel plug assay (in vivo VEGF-induced angiogenesis); parameters: species or system mouse; conditions: seven days, FIG. 7
Protocol: A test material administration group and a VEGF (50 ng/ml) administration group were established, and each group consisted of six 8-week-old C57BL/6 mice. 0.5 ml of Matrigel, 50 U/ml of heparin, and a test material were formulated for use at each concentration right before the administration, and formulated such that VEGF was also included in the test material administration group. Seven days after the administration, a Matrigel plug was extracted, a photograph was taken, the amount of hemoglobin was measured by using the Drabkin method (Drabkin reagent kit 525, Sigma-Aldrich, Louis, Mo.), and purification was performed.
0.6 ml of the test material solution was administered to the dorsal hypodermis of each test animal by using a 1-ml syringe.
Thus, additionally through an in vivo Matrigel plug assay, the effects of P2 on in vivo angiogenesis were checked.

HUVECs [4] = test: Colony tube formation assay; format: cell-based, human; conditions: Matrigel, VEGF 50 ng/ml, 24 hours, FIG. 3
Protocol: After being cultured to 80-90% confluence in a plate covered with Matrigel (Collaborative Biomedical Products, Bedford, Mass.), HUVECs were additionally cultured in an M199 medium supplemented with 1% FBS for 6 hours, and then treated with neo-N-methylsansalvamide (NMSSV) at various concentrations in the presence of VEGF (50 ng/ml) for 24 hours. The tube formation was photographed by using a phase-contrast microscope.
The formation of capillary-like tubular structures by endothelial cells is one of the most essential steps in the development of angiogenesis, and it was checked whether P2 inhibited the formation of capillary-like network structures in HUVECs in Matrigel.

HUVECs [5] = test: Transwell invasion assay; format: cell-based, human; conditions: VEGF 50 ng/ml, 24 hours, FIG. 5
Protocol: An experiment was performed by using a modified Boyden chamber prepared with a polycarbonate nucleopore membrane (Corning, Corning, N.Y.). After trypsin-EDTA was added to the cells, the cells were collected, the cells were measured by using a hematocytometer, and then the concentration was set to 4×10^5 cells/ml, and the cells were respectively aliquoted. After 700 μl of the medium was added to the bottom well and an insert was placed thereon, 100 μl of cells prepared with neo-N-methylsansalvamide (NMSSV) at various concentrations were aliquoted into the insert in the presence of VEGF (50 ng/ml) and cultured in an incubator at 37° C. for 24 hours. […] After the cells, which succeeded in passing through the gelatin, were fixed with 4% paraformaldehyde, the cells were stained by using crystal violet, washed twice with PBS, and then placed on a glass plate. Thereafter, the cells were observed by using a microscope, and arbitrary five points were marked, photographed, and observed.
as §3

C57BL/6 mice [6] = test: Laser-induced CNV mouse model, isolectin B4 immunofluorescence staining; format: in vivo; conditions: intravitreal injection once, 2 weeks after laser, vs control, FIG. 9
Protocol: (§4) More specifically, male 6-week-old C57BL/6 mice were purchased from Orient Bio Inc., and acclimated for 1 week, and then anesthetized, and the pupils were dilated. Subsequently, an animal model was prepared by irradiating the space around the ophthalmic nerves in 12, 3, 6, and 9 o'clock directions with diode green laser (532 nm, 200 mW, 0.8 sec, 50 μm, and photocoagulator) to cause injury to 3 to 4 sites per eyeball.
(§5) After injury was caused to mice with laser by the method in Example 1-9-1 and the mice were anesthetized one day later, 2 μL was administered into the vitreous body of both eyes once (intravitreal injection) using a 34 gauge needle. Subsequently, 14 days after the irradiation with laser, angiography and staining and imaging of CNV were performed.
14 days after the irradiation with laser, eyeballs were extracted from the mice, and then fixed in 4% paraformaldehyde for 1 hour. […] Thereafter, after the complex tissue was washed with PBS, the tissue with a fluorescence mounting medium (Vector, USA) was fixed on a slide glass, and then covered with a cover slip, and the tissue was observed and photographed through a fluorescence microscope. The CNV lesion area was measured by using Image-Pro Plus software. […]

eNOS = test: Phosphorylation assay of eNOS in VEGF-induced HUVECs (Western); format: cell-based, human; conditions: VEGF 50 ng/ml, FIG. 2
Protocol: as §1, §2

AKT = test: Phosphorylation assay of AKT in VEGF-induced HUVECs (Western); format: cell-based, human; conditions: VEGF 50 ng/ml, FIG. 2
Protocol: as §1, §2

C57BL/6 mice [7] = test: Laser-induced choroidal neovascularization (CNV) mouse model, angiography; format: in vivo; conditions: intravitreal injection once, 14 days after laser, vs control, FIG. 8
Protocol: as §4, §5
14 days after the irradiation with laser, the mice experienced mydriasis and were systemically anesthetized by injecting 80 mg/kg of alfaxalone into the abdominal cavities of the mice, and then 1% fluorescein was intraperitoneally injected into the mice. And then, after the mice were photographed by using a Micron IV device, the CNV lesion area was measured by using Image-Pro Plus software.
Accordingly, in the animal models prepared by the methods in Examples 1-9, the degree to which the contrast medium was leaked according to the administration of NMSSV was compared with that of the control.

CC(C)CC1OC(=O)[C@H](Cc2ccccc2)NC(=O)[C@H](CC(C)C)NC(=O)[C@H](C(C)C)NC(=O)[C@H](CC(C)C)N(C)C1=O (single isomer, unassigned) [P2, neo-N-methylsansalvamide] was tested, and the “phosphorylation of ERK1/2 induced by VEGF” value (ERK1/2) was “inhibited the phosphorylation”, the “formation of VEGF-induced blood vessels in a mouse aortic ring” value (mouse aortic ring) was “significantly inhibited” and the “VEGF-induced migration of HUVECs” value (HUVECs [1]) was “significantly decreased”. For the same compound, the “proliferation of HUVECs induced by VEGF” value ([2]; VEGF 50 ng/ml, MTT, FIG. 1) was “dose-dependently inhibited”, the “apoptosis (cytotoxicity) in HUVECs” value ([2]; at 5 μg/ml of P2, MTT) was “significant apoptosis was not detected” and the “content of hemoglobin of Matrigel plug treated with VEGF” value (C57BL/6 mice [3]; Drabkin method) was “continuously inhibited the content of hemoglobin”. The “formation of new blood vessels in Matrigel plug” value (C57BL/6 mice [3]; compared to VEGF alone, subcutaneous plug) was “the formation of new blood vessels was decreased”, the “VEGF-induced colony tube formation in HUVECs” value (HUVECs [4]) was “significantly inhibited” and the “invasion of HUVECs due to VEGF through Matrigel” value (HUVECs [5]) was “blocked”. For the same compound, the “CNV lesion area (isolectin B4 stained area)” value (C57BL/6 mice [6]) was “significantly decreased”, the “phosphorylation of eNOS induced by VEGF” value (eNOS) was “inhibited the phosphorylation” and the “phosphorylation of AKT induced by VEGF” value (AKT) was “inhibited the phosphorylation”. The “CNV lesion area (angiography)” value (C57BL/6 mice [7]) was “the CNV lesion area is decreased” and the fluorescein leakage (C57BL/6 mice [7]) was “the fluorescein leakage was decreased”.
